Experimental data published in US12559529B2, “NPY2 receptor agonists” (Boehringer Ingelheim International GmbH, priority 2019, dated 2026).

What was measured:
[1] = molecular target: T1, Human Neuropeptide Y2 Receptor (Homo sapiens, UniProt P49146); assay: Radioligand binding competition assay (RLB); conditions: Table 3; human 125I-PYY (1-36) 0.02 nM, Y2 receptor membranes; read-out: Ki
T1 construct: purchased CHEMICON HTS066M
T1 sequence (P49146 1-381): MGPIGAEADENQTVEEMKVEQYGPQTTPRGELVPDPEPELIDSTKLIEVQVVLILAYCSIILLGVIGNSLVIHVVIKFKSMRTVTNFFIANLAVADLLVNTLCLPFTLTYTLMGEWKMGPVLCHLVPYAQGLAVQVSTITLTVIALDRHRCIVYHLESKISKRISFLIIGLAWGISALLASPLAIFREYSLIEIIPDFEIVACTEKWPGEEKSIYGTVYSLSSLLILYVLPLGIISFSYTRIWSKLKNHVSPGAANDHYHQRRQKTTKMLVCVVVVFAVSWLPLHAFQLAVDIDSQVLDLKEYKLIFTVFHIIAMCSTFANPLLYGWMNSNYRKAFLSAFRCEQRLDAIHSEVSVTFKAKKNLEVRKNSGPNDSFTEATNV
How it was run: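 Peptide dilutions made in pH 7.4 HEPES assay buffer with 0.2% ovalbumin; human Y2 receptor membranes added at 0.5 μg protein/well; plates shaken 2 h at room temperature; reaction stopped by vacuum filtration onto PEI-treated GF/C filters with ice-cold high-salt washes; radioactivity counted by scintillation.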

[2] = tested on: normal NMRI mice; assay: Effect on acute food intake in normal NMRI mice; assay type: in vivo; conditions: male NMRI mice, 10 nmol/kg subcutaneously once
Method: Male NMRI mice were obtained from Charles River (Charles River, Research Models & Services Germany GmbH) or from Jan Vier (Jan Vier Labs, France) at 5 weeks of age. […] Room temperature was controlled to 21° C.±1° C., with 60%+20% humidity.
Animals were transferred 5-7 days before the start of the study to a real-time food intake monitoring system, HM-2 system (MBRose, Denmark), to allow acclimatization to experimental conditions. As the animals were uniquely identified with microchips, each individual animal was identified by its microchip upon entry and exit from the food channel. Randomization of the mice for each study group (n=7-8) was based on body weight measured the day before the start of the study. A vehicle-treated (50 mM phosphate buffer pH7 with 5% Mannitol) group was included in each experiment. Six hours before the start of the night phase animals were fasted. One hour before the dark phase animals were dosed once subcutaneously (10 nmol/kg) with test peptide. […] The food intake of the treated groups was normalized (in %) to the average food intake of the group receiving vehicle (Table 7). Statistical significance was evaluated using One-way analysis of variance with Turkey's multiple comparison test. P<0.05 was considered statistically significant.

Structure (SMILES)	Ki [1]	Acute Food Intake 24 h [% vehicle] [2]
CC(C)CC(=O)N[C@@H](C)C(=O)N1CCC[C@H]1C(=O)N[C@@H](CCC(=O)O)C(=O)N[C@@H](CCCCNC(=O)COCCOCCNC(=O)COCCOCCNC(=O)CC[C@H](NC(=O)CCCCCCCCCCCCCCCCC(=O)O)C(=O)O)C(=O)N1CCC[C@H]1C(=O)N[C@@H](CCC(=O)O)C(=O)N[C@@H](CCC(=O)O)C(=O)N[C@@H](CC(=O)O)C(=O)N[C@@H](C)C(=O)N[C@@H](CO)C(=O)N1CCC[C@H]1C(=O)N[C@@H](CCC(=O)O)C(=O)N[C@@H](CCC(=O)O)C(=O)N[C@@H](CC(C)C)C(=O)N[C@@H](CCC(N)=O)C(=O)N[C@@H](CCCCN)C(=O)N[C@@H](Cc1ccc(O)cc1)C(=O)N[C@@H](Cc1ccc(O)cc1)C(=O)N[C@H](C(=O)N[C@@H](CO)C(=O)N[C@@H](CC(C)C)C(=O)N[C@@H](CCCNC(=N)N)C(=O)N[C@@H](Cc1c[nH]cn1)C(=O)N[C@@H](Cc1ccc(O)cc1)C(=O)N[C@@H](Cc1ccc(O)cc1)C(=O)N[C@@H](CC(N)=O)C(=O)N[C@@H](Cc1c[nH]c2ccccc12)C(=O)N[C@@H](CC(C)C)C(=O)N[C@H](C(=O)N[C@@H](CCCNC(=N)N)C(=O)N[C@@H](CCC(N)=O)C(=O)N[C@@H](CCCNC(=N)N)C(=O)N[C@@H](Cc1ccc(O)cc1)C(N)=O)[C@@H](C)O)C(C)C [Compound 21, N{alpha-4}-(3-methylbutanoyl)-N{epsilon-7}-[2-(2-{2-[2-(2-{2-[(4S)-4-carboxy-4-(17-carboxyheptadecanamido)butanamido]ethoxy}ethoxy)acetamido]ethoxy}ethoxy)acetamido]-[4A,7K,9E,18Q,19K,22V,28Y,30W,31L]hPYY (4-36)]	1.52 nM	89 % vehicle
CC(C)CC(=O)N[C@@H](C)C(=O)N1CCC[C@H]1C(=O)N[C@@H](CCC(=O)O)C(=O)N[C@@H](CCCCNC(=O)COCCOCCNC(=O)COCCOCCNC(=O)CC[C@H](NC(=O)CCCCCCCCCCCCCCCCC(=O)O)C(=O)O)C(=O)N1CCC[C@H]1C(=O)N[C@@H](CCC(=O)O)C(=O)N[C@@H](CCC(=O)O)C(=O)N1CCC[C@H]1C(=O)N[C@@H](C)C(=O)N[C@@H](CO)C(=O)N1CCC[C@H]1C(=O)N[C@@H](CCC(=O)O)C(=O)N[C@@H](CCC(=O)O)C(=O)N[C@@H](CC(C)C)C(=O)N[C@@H](CCC(N)=O)C(=O)N[C@@H](CCCNC(=N)N)C(=O)N[C@@H](Cc1ccc(O)cc1)C(=O)N[C@@H](Cc1ccc(O)cc1)C(=O)N[C@H](C(=O)N[C@@H](CCC(=O)O)C(=O)N[C@@H](CC(C)C)C(=O)N[C@@H](CCCNC(=N)N)C(=O)N[C@@H](Cc1c[nH]cn1)C(=O)N[C@@H](Cc1ccc(O)cc1)C(=O)N[C@@H](Cc1ccc(O)cc1)C(=O)N[C@@H](CC(N)=O)C(=O)N[C@@H](Cc1c[nH]c2ccccc12)C(=O)N[C@@H](CC(C)C)C(=O)N[C@H](C(=O)N[C@@H](CCCNC(=N)N)C(=O)N[C@@H](CCC(N)=O)C(=O)N[C@@H](CCCNC(=N)N)C(=O)N[C@@H](Cc1ccc(O)cc1)C(N)=O)[C@@H](C)O)C(C)C [Compound 33, N{alpha-4}-(3-methylbutanoyl)-N{epsilon-7}-[2-(2-{2-[2-(2-{2-[(4S)-4-carboxy-4-(17-carboxyheptadecanamido)butanamido]ethoxy}ethoxy)acetamido]ethoxy}ethoxy)acetamido]-[4A,7K,9E,11P,18Q,22V,23E,28Y,30W,31L]hPYY (4-36)]	0.45 nM	54 % vehicle
CC(C)CC(=O)N[C@@H](C)C(=O)N1CCC[C@H]1C(=O)N[C@@H](CCC(=O)O)C(=O)N[C@@H](CCCCNC(=O)COCCOCCNC(=O)COCCOCCNC(=O)CC[C@H](NC(=O)CCCCCCCCCCCCCCCCC(=O)O)C(=O)O)C(=O)N1CCC[C@H]1C(=O)N[C@@H](CCC(=O)O)C(=O)N[C@@H](CCC(=O)O)C(=O)N[C@@H](CC(=O)O)C(=O)N[C@@H](C)C(=O)N[C@@H](CO)C(=O)N1CCC[C@H]1C(=O)N[C@@H](CCC(=O)O)C(=O)N[C@@H](CCC(=O)O)C(=O)N[C@@H](CC(C)C)C(=O)N[C@@H](CCC(N)=O)C(=O)N[C@@H](CCC(N)=O)C(=O)N[C@@H](Cc1ccc(O)cc1)C(=O)N[C@@H](Cc1ccc(O)cc1)C(=O)N[C@H](C(=O)N[C@@H](CCC(=O)O)C(=O)N[C@@H](CC(C)C)C(=O)N[C@@H](CCCNC(=N)N)C(=O)N[C@@H](Cc1c[nH]cn1)C(=O)N[C@@H](Cc1ccc(O)cc1)C(=O)N[C@@H](Cc1ccc(O)cc1)C(=O)N[C@@H](CC(N)=O)C(=O)N[C@@H](Cc1c[nH]c2ccccc12)C(=O)N[C@@H](CC(C)C)C(=O)N[C@H](C(=O)N[C@@H](CCCNC(=N)N)C(=O)N[C@@H](CCC(N)=O)C(=O)N[C@@H](CCCNC(=N)N)C(=O)N[C@@H](Cc1ccc(O)cc1)C(N)=O)[C@@H](C)O)C(C)C [Compound 49, N{alpha-4}-(3-methylbutanoyl)-N{epsilon-7}-[2-(2-{2-[2-(2-{2-[(4S)-4-carboxy-4-(17-carboxyheptadecanamido)butanamido]ethoxy}ethoxy)acetamido]ethoxy}ethoxy)acetamido]-[4A,7K,9E,18Q,19Q,22V,23E,28Y,30W,31L]hPYY (4-36)]	0.89 nM	60 % vehicle

Further lines, with some results ahead:

Ki [1]	Structure (SMILES)	Acute Food Intake 24 h [% vehicle] [2]
1.22 nM	CC[C@H](C)[C@H](NC(=O)[C@H](CCC(=O)O)NC(=O)[C@H](CCC(=O)O)NC(=O)[C@@H]1CCCN1C(=O)[C@H](CO)NC(=O)[C@H](C)NC(=O)[C@H](CC(=O)O)NC(=O)[C@H](CCC(=O)O)NC(=O)[C@H](CCC(=O)O)NC(=O)[C@@H]1CCCN1C(=O)[C@H](CCCCNC(=O)COCCOCCNC(=O)COCCOCCNC(=O)CC[C@H](NC(=O)CCCCCCCCCCCCCCCCC(=O)O)C(=O)O)NC(=O)[C@H](CCC(=O)O)NC(=O)[C@@H]1CCCN1C(=O)[C@H](C)NC(=O)CC(C)C)C(=O)N[C@@H](CCC(N)=O)C(=O)N[C@@H](CCCNC(=N)N)C(=O)N[C@@H](Cc1ccc(O)cc1)C(=O)N[C@@H](Cc1ccc(O)cc1)C(=O)N[C@H](C(=O)N[C@@H](CCC(=O)O)C(=O)N[C@@H](CC(C)C)C(=O)N[C@@H](CCCNC(=N)N)C(=O)N[C@@H](Cc1c[nH]cn1)C(=O)N[C@@H](Cc1ccc(O)cc1)C(=O)N[C@@H](Cc1ccc(O)cc1)C(=O)N[C@@H](CC(N)=O)C(=O)N[C@@H](Cc1c[nH]c2ccccc12)C(=O)N[C@@H](CC(C)C)C(=O)N[C@H](C(=O)N[C@@H](CCCNC(=N)N)C(=O)N[C@@H](CCC(N)=O)C(=O)N[C@@H](CCCNC(=N)N)C(=O)N[C@@H](Cc1ccc(O)cc1)C(N)=O)[C@@H](C)O)C(C)C [Compound 9, N{alpha-4}-(3-methylbutanoyl)-N{epsilon-7}-[2-(2-{2-[2-(2-{2-[(4S)-4-carboxy-4-(17-carboxyheptadecanamido)butanamido]ethoxy}ethoxy)acetamido]ethoxy}ethoxy)acetamido]-[4A,7K,9E,17I,18Q,22V,23E,28Y,30W,31L]hPYY (4-36)]	44 % vehicle
3.09 nM	CC(C)CC(=O)N[C@@H](C)C(=O)N1CCC[C@H]1C(=O)N[C@@H](CCC(=O)O)C(=O)N[C@@H](CCCCNC(=O)COCCOCCNC(=O)COCCOCCNC(=O)CC[C@H](NC(=O)CCCCCCCCCCCCCCCCC(=O)O)C(=O)O)C(=O)N1CCC[C@H]1C(=O)N[C@@H](CCC(=O)O)C(=O)N[C@@H](CCC(=O)O)C(=O)N[C@@H](CC(=O)O)C(=O)N[C@@H](C)C(=O)N[C@@H](CO)C(=O)N1CCC[C@H]1C(=O)N[C@@H](CCC(=O)O)C(=O)N[C@@H](CCC(=O)O)C(=O)N[C@H](C(=O)N[C@@H](CCC(N)=O)C(=O)N[C@@H](CCCNC(=N)N)C(=O)N[C@@H](Cc1ccc(O)cc1)C(=O)N[C@@H](Cc1ccc(O)cc1)C(=O)N[C@H](C(=O)N[C@H](C(=O)N[C@@H](CC(C)C)C(=O)N[C@@H](CCCNC(=N)N)C(=O)N[C@@H](Cc1c[nH]cn1)C(=O)N[C@@H](Cc1ccc(O)cc1)C(=O)N[C@@H](Cc1ccc(O)cc1)C(=O)N[C@@H](CC(N)=O)C(=O)N[C@@H](Cc1c[nH]c2ccccc12)C(=O)N[C@@H](CC(C)C)C(=O)N[C@H](C(=O)N[C@@H](CCCNC(=N)N)C(=O)N[C@@H](CCC(N)=O)C(=O)N[C@@H](CCCNC(=N)N)C(=O)N[C@@H](Cc1ccc(O)cc1)C(N)=O)[C@@H](C)O)[C@@H](C)O)C(C)C)[C@@H](C)O [Compound 16, N{alpha-4}-(3-methylbutanoyl)-N{epsilon-7}-[2-(2-{2-[2-(2-{2-[(4S)-4-carboxy-4-(17-carboxyheptadecanamido)butanamido]ethoxy}ethoxy)acetamido]ethoxy}ethoxy)acetamido]-[4A,7K,9E,17T,18Q,22V,23T,28Y,30W,31L]hPYY (4-36)]	67 % vehicle
